Source: ChEMBL document CHEMBL1949648, “Synthesis and neurite growth evaluation of new analogues of honokiol, a neolignan with potent neurotrophic activity” (2012)

How the values were obtained:
N2a [1] = assay: Induction of neurite outgrowth in mouse Neuro2a cells at 1 uM after 48 hrs by morphometric analysis relative to control; type: functional
N2a [2] = assay: Induction of neurite outgrowth in mouse Neuro2a cells at 0.1 uM after 48 hrs by morphometric analysis relative to control; type: functional

Row | SMILES | Activity (N2a [1]) [%] | Activity (N2a [2]) [%]
1 | C=CCc1ccc(O)c(-c2ccc(O)c(-c3ccc(C(=O)OCC)c(C)n3)c2)c1 | 5.78 | 
2 | C=CCc1ccc(OC)c(-c2ccc(OC)c(C(=O)c3cn(Cc4ccccc4)nn3)c2)c1 | 6.87 | 
3 | C=CCc1ccc(OC)c(-c2ccc(O)c(-c3ccn(C)n3)c2)c1 |  | 5.89
4 | C=CCc1ccc(O)c(-c2ccc(O)c(CC=C)c2)c1 [HONOKIOL] | 41.03 | 
